The supplement of paper PMC10307832

Experiments:
Assay in all cases: relative viability (nuclei count vs DMSO), 5 days (fraction); higher = more cells survive
AZ3146 + Decitabine = compound: CN1CCC(CC1)OC2=CC(=C(C=C2)NC3=NC=C4C(=N3)N(C(=O)N4C)C5CCCC5)OC [AZ3146] + Nc1ncn([C@H]2C[C@H](O)[C@@H](CO)O2)c(=O)n1 [Decitabine] (partner 2 µM)
Outline: (§1)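 Relative viability divides the nuclei count in treated wells by that in vehicle wells. Lung cancer cell lines were seeded in 1536-well plates, dosed by pin tool the next day, and fixed and stained after 5 days in one step with final 0.05% Triton X-100, 1% formaldehyde and 1 ug/ml Hoechst. Dosing was a single drug or a fixed anchor-drug dose plus five library-drug doses (not always all listed) in √10 steps, and values are medians of duplicate plates imaged at 4×.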

AZ3146 + Linsitinib = compound: CN1CCC(CC1)OC2=CC(=C(C=C2)NC3=NC=C4C(=N3)N(C(=O)N4C)C5CCCC5)OC [AZ3146] + C[C@]1(O)C[C@@H](c2nc(-c3ccc4ccc(-c5ccccc5)nc4c3)c3c(N)nccn32)C1 [Linsitinib] (partner 1 µM)
Outline: as §1

GSK-J4 + Luminespib = compound: CCOC(=O)CCNc1cc(N2CCc3ccccc3CC2)nc(-c2ccccn2)n1 [GSK-J4] + CCNC(=O)c1noc(-c2cc(C(C)C)c(O)cc2O)c1-c1ccc(CN2CCOCC2)cc1 [Luminespib] (partner 0.01 µM)
Outline: as §1

AZ3146 + Trametinib = compound: CN1CCC(CC1)OC2=CC(=C(C=C2)NC3=NC=C4C(=N3)N(C(=O)N4C)C5CCCC5)OC [AZ3146] + CC(=O)Nc1cccc(-n2c(=O)n(C3CC3)c(=O)c3c(Nc4ccc(I)cc4F)n(C)c(=O)c(C)c32)c1 [Trametinib] (partner 0.02 µM)
Outline: as §1

| Cell Line | relative viability (AZ3146 + Decitabine; first compound 0.08 µM) | relative viability (AZ3146 + Decitabine; first compound 0.253 µM) | relative viability (AZ3146 + Decitabine; first compound 0.8 µM) | relative viability (AZ3146 + Decitabine; first compound 2.53 µM) | relative viability (AZ3146 + Decitabine; first compound 8 µM) | relative viability (AZ3146 + Linsitinib; first compound 0.08 µM) | relative viability (AZ3146 + Linsitinib; first compound 0.253 µM) | relative viability (AZ3146 + Linsitinib; first compound 0.8 µM) | relative viability (AZ3146 + Linsitinib; first compound 2.53 µM) | relative viability (AZ3146 + Linsitinib; first compound 8 µM) | relative viability (GSK-J4 + Luminespib; first compound 0.5 µM) | relative viability (GSK-J4 + Luminespib; first compound 5 µM) | relative viability (GSK-J4 + Luminespib; first compound 15.81 µM) | relative viability (GSK-J4 + Luminespib; first compound 50 µM) | relative viability (AZ3146 + Trametinib; first compound 0.08 µM) | relative viability (AZ3146 + Trametinib; first compound 0.253 µM) | relative viability (AZ3146 + Trametinib; first compound 0.8 µM) | relative viability (AZ3146 + Trametinib; first compound 2.53 µM) | relative viability (AZ3146 + Trametinib; first compound 8 µM) | relative viability (GSK-J4 + Luminespib; first compound 1.581 µM) |
| --- | --- | --- | --- | --- | --- | --- | --- | --- | --- | --- | --- | --- | --- | --- | --- | --- | --- | --- | --- | --- |
| HCC-15 | 0.529 | 0.59 | 0.642 | 0.678 | 0.39 | 0.815 | 0.946 | 0.874 | 0.879 | 0.879 | 0.232 | 0.304 | 0.174 | 0.268 | 0.421 | 0.346 | 0.357 | 0.414 | 0.348 |  |
| HCC-44 | 0.912 | 0.889 | 1.03 | 0.943 | 0.958 | 0.598 | 0.618 | 0.685 | 0.718 | 0.675 | 1.02 |  | 0.939 | 0.747 | 1.07 | 1.02 | 0.996 | 1.04 | 1.15 | 0.897 |
| HCC-78 |  | 0.746 | 0.623 | 0.744 | 0.728 |  | 0.476 | 0.416 | 0.532 | 0.522 |  |  |  |  |  | 0.65 | 0.738 | 0.823 | 0.749 |  |
| HCC-366 | 0.342 | 0.39 | 0.296 | 0.352 | 0.321 | 0.674 | 0.598 | 0.593 | 0.637 | 0.855 |  |  |  |  | 0.31 | 0.412 | 0.311 | 0.341 | 0.316 |  |
| HCC-827 | 0.308 | 0.364 | 0.31 | 0.3 | 0.347 | 0.907 | 0.889 | 0.946 | 1.02 | 1.01 | 0.566 | 0.832 | 0.405 | 0.526 | 0.63 | 0.498 | 0.481 | 0.554 | 0.477 | 0.629 |
| HOP-62 | 0.22 | 0.195 | 0.207 | 0.248 | 0.203 | 1.05 | 0.978 | 1.06 | 1.06 | 1.05 | 0.877 | 0.917 | 0.794 | 0.396 | 0.451 | 0.354 | 0.325 | 0.387 | 0.389 | 0.937 |
| IA-LM |  |  |  |  |  | 0.729 | 0.441 | 0.652 | 0.803 | 0.626 |  |  |  |  |  |  |  |  |  |  |
| LC-2-ad | 0.729 | 0.783 | 0.728 | 0.781 | 0.716 | 0.782 | 0.886 | 0.775 | 0.845 | 0.863 | 0.851 | 0.701 | 0.886 | 0.54 | 0.858 | 0.928 | 0.928 | 0.894 | 0.902 | 0.889 |
| LCLC-97TM1 | 0.209 | 0.254 | 0.225 | 0.222 | 0.248 |  |  | 0.221 | 0.164 | 0.173 | 0.725 | 0.773 | 0.415 | 0.256 | 0.268 | 0.2 | 0.157 | 0.184 | 0.223 | 0.722 |
| NCI-H522 | 0.732 | 0.589 | 0.683 | 0.616 | 0.714 |  |  |  |  |  | 1.22 | 1.2 | 0.612 | 0.587 | 0.749 | 0.687 | 0.747 | 0.64 | 0.74 | 0.944 |
| NCI-H1299 |  |  |  |  |  | 0.941 | 0.981 | 0.964 | 0.99 | 1.03 |  |  |  |  |  |  |  |  |  |  |
| NCI-H1563 |  |  |  |  |  | 1.09 | 1.36 | 1.15 | 1.24 | 1.35 | 0.513 | 0.477 | 0.502 | 0.526 |  |  |  |  |  | 0.484 |
| NCI-H1623 |  |  |  |  |  |  |  |  |  |  | 0.556 | 0.677 | 0.432 | 0.283 |  |  |  |  |  | 0.427 |
| NCI-H1648 |  |  | 0.514 | 0.562 | 0.429 |  |  |  |  |  |  |  |  |  |  |  | 0.219 | 0.563 | 0.568 |  |
| NCI-H1650 | 0.377 | 0.44 | 0.366 | 0.44 | 0.367 |  |  |  |  |  | 0.17 | 0.228 | 0.153 | 0.231 | 0.594 | 0.546 | 0.602 | 0.492 | 0.414 | 0.222 |
| NCI-H1703 |  |  |  |  |  | 0.824 | 1.15 | 0.637 | 0.872 | 0.924 |  |  |  |  |  |  |  |  |  |  |
| NCI-H2170 | 0.441 | 0.477 | 0.461 | 0.421 | 0.466 |  |  |  |  |  | 0.576 | 0.81 | 0.362 | 0.609 | 0.888 | 1.04 | 0.861 | 0.928 | 0.859 | 0.668 |
| NCI-H2228 |  |  |  |  |  | 1 | 0.867 | 0.657 | 0.628 | 0.774 | 0.189 | 0.152 | 0.143 | 0.124 | 0.415 | 0.539 | 0.33 | 0.44 | 0.455 | 0.124 |
| NCI-H2342 | 0.653 | 0.681 | 0.756 | 0.683 | 0.714 |  |  |  |  |  | 0.736 | 0.865 | 0.951 | 0.858 | 0.715 | 0.741 | 0.989 | 0.89 | 0.89 | 0.783 |
| SW 900 | 0.389 |  | 0.442 | 0.451 | 0.558 |  |  |  |  |  | 0.195 | 0.155 | 0.177 | 0.154 | 0.696 |  | 0.557 | 0.706 | 0.819 | 0.156 |
